In patent US4376783A, “Acylated guanidines and medicaments containing them” (Compagnie Francaise de Sucerie, priority 1980, dated 1983):
“Also recorded” adds a separate entry of the source.

Columns and labels:
[1] = system: isoproterenol-induced cardio-acceleration and hypotension; conditions: statement on the comparison drug; cited from earlier work
[2] = Pharmacological tests: cardiac stimulant effect; type: in vivo; conditions: at relatively high doses (of the order of 50 mg)
Text: Pharmacological tests have shown also that:

[3] = system: isoproterenol-induced cardio-acceleration and hypotension; assay: Beta-blocking and sympathomimetic activity against isoproterenol-induced cardio-acceleration and hypotension in anaesthetised dogs; type: in vivo, dog; conditions: for sympathomimetic activity / beta-blocking effect: product perfused i.v. at 25 mcg/kg/min, compared with Pindolol; for sympathomimetic activity: seen on cessation of isoprenaline; for beta-blocking effect: isoproterenol perfusion 0.2 mcg/kg/min; for beta-blocking properties relative to those of Pindolol: % of the beta-blocking properties of Pindolol, 25 mcg/kg/min i.v.
Procedure: These tests have been carried out on dogs (of both sexes) of weight comprised between 10 and 25 kg. These dogs were anesthetised by an injection of Pentobarbital (0.1 ml/kg of a 6% solution) and Chloralose (80 mg/kg). The blood pressure was recorded by means of a catheter inserted into the tibial artery and connected to a pressure cell, this pressure being recorded on a Beckman dynograph at the same time as an electrocardiogram; the latter enables the heart rhythm and the heart rate to be checked, integrated by a cardiotachometer.
The blood pressure and the electrocardiogram were first followed for five minutes. Then an isoproterenol solution was perfused into a cephalic vein, at the rate of 0.2 mcg/kg/min, namely 1 ml/min. After fiveperfusing for five minutes, the heart reached a tachycardiac level. At this moment, another perfusion was connected (into the cephalic vein of the other paw) of a Pindolol solution or of the product under study. The compounds of the invention was solubilized in 4 ml of DMF. The volume necessary for the perfusion was obtained by completing it with a 25% DMF solution in distilled water. All the products were injected at the rate of 25 mcg/kg/min. The
The extent to which the products were capable of antagonising the cardio-acceleration on the one hand and the hypotension on the other hand was examined.
After 35 minutes of perfusion, the isoprenaline injection was stopped. The Pindolol perfusion or that of the compound under study was interrupted after 40 minutes.

mouse = assay: Acute toxicity by the oral route in the mouse; type: in vivo
Procedure: (§1) As for its toxicity, for the determination of which experiments were carried out on two animal species, namely the rat of the OFA strain and the mouse of the OF1 strain, by two routes of administration namely the oral route and the intravenous route, the results obtained were as follows:
(§2) ACUTE TOXICITY OF THE PRODUCT S.C.S. 149 A ADMINISTERED BY THE ORAL ROUTE IN THE MOUSE
(§3) Death took place within 48 hours after treatment
(§4) The product was solubilized, for oral administration, in 2% CMC in water; the volume administered was 25 ml/kg in the mouse and 5 ml/kg in the rat for the dose of 1 g/kg, 10 ml/kg for 2 g/kg and 20 ml/kg for 3.5 and 5 g/kg.
(§5) The product was administered by oesophagal intubation.
(§6) The product was injected at the level of the caudal vein. Before administration of the product, the animals were kept fasting for 16 to 17 hours.

[4] = Acute toxicity by the oral route in the mouse; type: in vivo; conditions: in vivo, po, LD 50
Procedure: as §1, §2, §3, §4, §5, §6

rats = assay: Six-month toxicological test in rats; type: in vivo; conditions: rats of both sexes, daily for six months
Procedure: (§7) Also, toxicological tests have been carried out on 32 dogs (of both sexes) and 160 rats (of both sexes) for six months and have shown that S.C.S. 149 may be tolerated by the rats at a maximum daily dose of 500 mg/kg and by the dogs at a maximum daily dose of 100 mg/kg.

rat [5] = assay: Acute toxicity by the intravenous route in the rat; type: in vivo
Procedure: as §1
(§8) ACUTE TOXICITY OF THE PRODUCT S.C.S. 149 ADMINISTERED BY THE INTRAVENOUS ROUTE IN THE RAT
(§9) Death took place within 48 hours after administration of the product.
(§10) For the intravenous route, the product was solubilized in:
(§11) PEG 400+sterile water (1/3+2/3) in the rat.
(§12) The volume administered was:
as §6

[6] = Acute toxicity by the intravenous route in the rat; type: in vivo; conditions: in vivo, iv, LD 50
Procedure: as §1, §8, §9, §10, §11, §12, §6

rat [7] = assay: Acute toxicity by the oral route in the rat; type: in vivo
Procedure: as §1
(§13) ACUTE TOXICITY OF THE S.C.S. 149 PRODUCT ADMINISTERED BY THE ORAL ROUTE IN THE RAT
(§14) Death occured within 48 hours after the treatment.
as §4, §5, §6

[8] = Acute toxicity by the oral route in the rat; type: in vivo; conditions: in vivo, po, LD 50
Procedure: as §1, §13, §14, §4, §5, §6

isolated bronchi = assay: Tests on isolated bronchi (bronchial level)
beta 1 (isolated atria) = assay: Tests on isolated atria (cardiac level)
[9] = Acute toxicity by the intravenous route in the mouse; conditions: in vivo; for LD50 at 48 h: 48 hours after treatment; for LD50 at 336 h: 14 days after treatment
Procedure: as §1
ACUTE TOXICITY OF THE PRODUCT S.C.S. 149 ADMINISTERED BY THE INTRAVENOUS ROUTE IN THE MOUSE
ACUTE TOXICITY OF THE S.C.S. 149 PRODUCT ADMINISTERED BY THE INTRAVENOUS ROUTE IN THE MOUSE
LD 50 14 days after treatment.
as §10
sterile water in the mouse
as §12, §6

dogs = assay: Six-month toxicological test in dogs; type: in vivo; conditions: dogs of both sexes, daily for six months
Procedure: as §7

SMILES: CC(C)NCC(O)COc1cccc2[nH]ccc12 (stereo not drawn) [Pindolol]
- intrinsic sympathomimetic action among beta-blocking agents currently used in therapeutics [1]: intrinsic sympathomimetic action is greatest

SMILES: CCCCNC(=O)N(CC(O)COc1cccc2ccccc12)C(C)C (stereo not drawn) [SCS 128]
- cardiac stimulant effect [2]: cardiac stimulant effects; also recorded: cardiac stimulants

SMILES: CC(C)N(CC(O)COc1cccc2ccccc12)C(N)=O (stereo not drawn) [SCS 131]
- cardiac stimulant effect [2]: cardiac stimulant effects; also recorded: cardiac stimulants

SMILES: CCOC(=O)NC(=N)N(CC(O)COc1ccccc1Cl)C1CCCCC1 (stereo not drawn) [SCS 146]
- sympathomimetic activity [3]: sympathomimetic action; also recorded: considerable sympathomimetic activity

SMILES: CCOC(=O)NC(=N)N(CC(O)COc1ccc(Cl)cc1)C1CCCCC1 (stereo not drawn) [SCS 147]
- sympathomimetic activity [3]: sympathomimetic activity still greater than that of the preceding compound
- sympathomimetic activity ([3]; listed as 147): sympathomimetic action

SMILES: CCOC(=O)NC(=N)N(CC(O)COc1ccc(Cl)cc1)C(C)C (stereo not drawn) [SCS 148]
- beta-blocking effect [3]: certain betablocking action masked by intrinsic sympathomimetic properties
- sympathomimetic activity [3]: intrinsic sympathomimetic properties
- sympathomimetic activity ([3]; listed as 148): sympathomimetic action

SMILES: Cc1ccccc1OCC(O)CN(C(=N)NC(=O)c1ccccc1)C(C)C (stereo not drawn) [SCS 149]
- LD 50 (mouse; in vivo, po, 48 h): 604.81 mg/kg
- time of death after treatment (mouse; oral): ≤ 48 h
- LD50 at 48 h [4]: 560 mg/kg
- maximum tolerated daily dose (rats): 500 mg/kg
- LD 50 (rat [5]; in vivo, iv, 48 h): 40.37 mg/kg
- time of death after administration (rat [5]; intravenous): ≤ 48 h
- LD50 at 48 h [6]: 35.3 mg/kg
- beta-blocking properties relative to those of Pindolol [3]: about 60%
- beta-blocking effect [3]: undisputable beta-blocking properties
- beta-blocking effect ([3]; listed as 149): beta-blocking effects
- sympathomimetic activity [3]: intrinsic sympathomimetic effects
- LD 50 (rat [7]; in vivo, po, 48 h): 2932.6 mg/kg
- time of death after treatment (rat [7]; oral): ≤ 48 h
- LD50 at 48 h [8]: 3330 mg/kg
- blocking activity, type at the bronchial level (isolated bronchi): of the competitive type
- beta 1 blocking activity, type at the cardiac level (beta 1 (isolated atria)): beta 1 blocking activity of competitive type
- LD50 at 48 h ([9]; female mice): 38.8 mg/kg
- LD50 at 336 h ([9]; female mice): 38.1 mg/kg
- LD50 at 48 h ([9]; male mice): 37.2 mg/kg
- LD50 at 336 h ([9]; male mice): 37.2 mg/kg
- maximum tolerated daily dose (dogs): 100 mg/kg

SMILES: CCOC(=O)NC(=N)N(CC(O)COc1ccccc1C)C(C)C (stereo not drawn) [SCS 150]
- beta-blocking properties relative to those of Pindolol [3]: about 70%
- beta-blocking effect [3]: adrenergic beta-blocking properties
- beta-blocking effect ([3]; listed as 150): beta-blocking effects
- sympathomimetic activity [3]: intrinsic sympathomimetic effects

SMILES: CCOC(=O)NC(=N)N(CC(O)COc1ccccc1C)C1CCCCC1 (stereo not drawn) [SCS 151]
- sympathomimetic activity [3]: sympathomimetic characteristics
- sympathomimetic activity ([3]; listed as 151): sympathomimetic action
